From US20050020519A1, “Modulation of insulin-regulated aminopeptidase (irap)/angiotensin iv (at4) receptor activity” (priority 2001, published 2005)
Where no end group is shown, it is not given here.

How the values were obtained:
IRAP = target: T1, IRAP (Homo sapiens, UniProt Q9UIQ6); assay: Degradation of peptides by IRAP expressed in HEK 293T cells, HPLC with mass spectrometric detection; assay type: biochemical
T1 construct: expressed in transfected cells; host or cells: HEK 293T cells (solubilised membrane protein)
Method: At each time point (0, 0.5, 1, 2, 4 & 6 hr), an aliquot containing 5 μg peptide was removed, and the reaction stopped by addition of 4 volumes methanol/1% trifluoroacetic acid (TPA). Samples were dried on a centrifugal vacuum evaporator prior to HPLC analysis with on-line mass spectrometric detector. […] Fragments were identified following mass spectral analysis, using Agilent ChemStation deconvolution software.

rats = assay: Morris water maze, scopolamine-induced amnesia; assay type: in vivo, rat; conditions: 1 nmole icv after 70 nmole scopolamine
Text: The maze consisted of a circular tank, 1.6 m in diameter by 0.6 m in height, containing water to a depth of 30 cm. The room contained visual cues placed 40 cm from the edge of the tank. The rats were subjected to two days of familiarisation to the task, during which the escape pedestal is visible to the animals. During the acquisition phase, for the following 5 days, the water in the tank was rendered opaque, and the escape platform was submerged under the surface of the water. The animals had to rely on the visual cues around the room to find the submerged escape pedestal. The latency of the animal in finding the pedestal during the acquisition phase was taken as a measure of the spatial memory performance of the animal.
Rats were surgically implanted with cannulae in their lateral ventricles and allowed two to three days of recovery. During the familiarisation trials on days 1 and 2, the animals were placed in the water facing the wall of the tank from different starting positions equidistant from the escape pedestal. When the animals located and mounted the pedestal, they were allowed 30 seconds on the pedestal before the commencement of the next trial. Four consecutive trials were carried out on each animal on each day, and the mean latency period before the animal reached the pedestal was plotted. […]

T1 sequence (Q9UIQ6 whole entry): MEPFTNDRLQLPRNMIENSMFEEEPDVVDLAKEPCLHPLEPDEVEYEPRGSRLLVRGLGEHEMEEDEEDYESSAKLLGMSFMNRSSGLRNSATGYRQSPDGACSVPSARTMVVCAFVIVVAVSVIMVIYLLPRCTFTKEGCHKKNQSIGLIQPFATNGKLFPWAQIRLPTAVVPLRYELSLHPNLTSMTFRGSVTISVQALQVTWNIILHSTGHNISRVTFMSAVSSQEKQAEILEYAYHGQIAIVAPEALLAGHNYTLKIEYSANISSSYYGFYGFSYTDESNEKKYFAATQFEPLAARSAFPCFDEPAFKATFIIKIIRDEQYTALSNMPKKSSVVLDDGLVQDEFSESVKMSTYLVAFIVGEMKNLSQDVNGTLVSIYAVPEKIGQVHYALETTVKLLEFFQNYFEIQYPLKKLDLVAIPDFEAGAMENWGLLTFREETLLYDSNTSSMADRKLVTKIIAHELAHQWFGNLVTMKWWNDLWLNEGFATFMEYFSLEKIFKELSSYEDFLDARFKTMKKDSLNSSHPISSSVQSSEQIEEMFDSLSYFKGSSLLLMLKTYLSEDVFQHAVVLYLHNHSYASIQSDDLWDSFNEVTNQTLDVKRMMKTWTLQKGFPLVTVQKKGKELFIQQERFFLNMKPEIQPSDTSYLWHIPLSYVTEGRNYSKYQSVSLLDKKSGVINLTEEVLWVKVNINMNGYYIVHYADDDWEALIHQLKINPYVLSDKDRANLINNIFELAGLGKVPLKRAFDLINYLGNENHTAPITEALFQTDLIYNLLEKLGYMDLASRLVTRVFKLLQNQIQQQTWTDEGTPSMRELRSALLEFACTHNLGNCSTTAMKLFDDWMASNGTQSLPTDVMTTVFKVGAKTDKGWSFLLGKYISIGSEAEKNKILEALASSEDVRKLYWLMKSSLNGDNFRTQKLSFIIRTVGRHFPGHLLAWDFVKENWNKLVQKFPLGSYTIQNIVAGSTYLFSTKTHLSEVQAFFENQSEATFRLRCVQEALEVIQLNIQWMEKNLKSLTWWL

## LVVYPWTQRF
IRAP; 37° C., hIRAP transfected HEK 293T membranes, (=UT) equals untransfected control cells
  Substrate disappearance over 4 hr: 14% (=UT)
IRAP; incubation at 37° C. with solubilized membrane protein from hIRAP transfected HEK 293T cells
  Products Identified: VVYPWTQRF
rats
  latency in locating the submerged pedestal: reversed the scopolamine-induced latency
